Reference: patent US6852332B2, “Liquid vitamin composition” (Adisseo France S.A.S., priority 2000, dated 2005)

Tests used:
Type in all cases: physicochemical
[1] = Stability of second liquid vitamin formulation (Example 1), stored at 40° C., HPLC; settings: for CONC at T = 0: immediately after preparation; for CONC at T = 1 week / CONC at T = 2 weeks / CONC at T = 3 weeks / CONC at T = 4 weeks: stored at 40° C.
Method: (§1) The stability of each formulation in the composition each was determined over a 4 weeks period. The concentration of vitamin in the formulation was analysed using standard analytical methods (high performance liquid chromatography). The formulations were stored at 40° C. over the test period.

[2] = Stability of third liquid vitamin formulation (vitamin K3, Example 1), stored at 40° C., HPLC
Method: as §1

[3] = Stability of first liquid vitamin formulation (Example 1), stored at 40° C., HPLC; settings: for CONC at T = 0: immediately after preparation; for CONC at T = 2 weeks / CONC at T = 4 weeks: stored at 40° C.
Method: as §1

[4] = Stability of vitamin A in poultry feed (Example 3), 20° C., 80% humidity, HPLC; settings: four weeks
Method: A standard poultry feed comprising a digestible carbohydrate, a source of fat, a source of amino acid, vitamins and minerals as detailed in Table 3.1 below was used in this example Two sources of vitamin A are compared. Mixture A contained the vitamin composition in the liquid form according to the present invention whilst mixture B contained the conventional powdered vitamin composition. The vitamin pre-mixes were added to the feed. The stability of vitamin A in both feed samples was determined over a four weeks period. The feeds were stored at 20° C. and under 80% humidity. The concentration of vitamin A in the feed was measured using conventional analytical methods (high performance liquid chromatography).

Row | CONC at T = 0 [1] | CONC at T = 1 week [1] | CONC at T = 2 weeks [1] | CONC at T = 3 weeks [1] | CONC at T = 4 weeks [1] | CONC at T = 0 [3] | CONC at T = 2 weeks [3] | CONC at T = 4 weeks [3] | Compound | other results
1 | 1 g % g of solution | 1.08 g % g of solution | 1.04 g % g of solution | 1.04 g % g of solution | 1.01 g % g of solution |  |  |  | Cc1cc2nc3c(=O)[nH]c(=O)nc-3n(C[C@H](O)[C@H](O)[C@H](O)CO)c2cc1C [Vitamin B2, riboflavin] | 
2 | 8 g % g of solution | 7.98 g % g of solution | 7.8 g % g of solution | 7.85 g % g of solution | 8 g % g of solution |  |  |  | NC(=O)c1cccnc1 [Vitamin B3, niacinamide] | 
3 | 2.63 g % g of solution | 2.64 g % g of solution | 2.65 g % g of solution | 2.64 g % g of solution | 2.69 g % g of solution |  |  |  | CC(C)(CO)[C@@H](O)C(=O)NCCCO [Vitamin B5, dexpanthénol] | 
4 | 0.355 g % g of solution | 0.32 g % g of solution | 0.33 g % g of solution | 0.333 g % g of solution | 0.329 g % g of solution |  |  |  | Cc1ncc(CO)c(CO)c1O.OCl [Vitamin B6, pyridoxine chlorohydrate] | 
5 |  |  |  |  |  |  |  |  | CC1=CC(=O)c2ccccc2C1=O [Vitamin K3, menadione] | Stability of vitamin K3 in the third liquid formulation (in words) ([2]; 40° C., 4 weeks): stable; CONC at T = 0 ([2]; third formulation, immediately after preparation): 2.00 g % g of solution; CONC at T = 2 weeks ([2]; third formulation, stored at 40° C., 2 weeks): 1.93 g % g of solution; CONC at T = 4 weeks ([2]; third formulation, stored at 40° C., 4 weeks): 1.92 g % g of solution
6 |  |  |  |  |  | 120500 UI/g | 118500 UI/g | 120400 UI/g | Oil of Vitamin A | Stability of vitamin A in feed, liquid pre-mix versus powdered pre-mix (in words) [4]: as stable in the feed containing the liquid pre-mix as in the conventional powdered pre-mix
7 |  |  |  |  |  | 27.6% | 29.1% | 29.3% | Oil of Vitamin E | 
8 |  |  |  |  |  | 0.0202% | 0.0165% | 0.0157% | Vitamin B12 | 

Row | Compound | CONC at T = 0 [1] | CONC at T = 1 week [1] | CONC at T = 2 weeks [1] | CONC at T = 3 weeks [1] | CONC at T = 4 weeks [1] | CONC at T = 0 [3] | CONC at T = 2 weeks [3] | CONC at T = 4 weeks [3] | other results
9 | O=C(O)CCCC[C@@H]1SC[C@@H]2NC(=O)N[C@@H]21 [Vitamin H, biotine] | 0.021 g % g of solution | 0.022 g % g of solution | 0.02 g % g of solution | 0.021 g % g of solution | 0.021 g % g of solution |  |  |  | 
10 | Oil of Vitamin D3 |  |  |  |  |  | 56200 UI/g | 56160 UI/g | 52800 UI/g | 
